Measurements from publication PMC5515887, “Ruthenium-conjugated chrysin analogues modulate platelet activity, thrombus formation and haemostasis with enhanced efficacy” (Scientific Reports, 2017).
Like-named read-outs stand apart in the source and are kept apart here.

Tests used:
platelets (PRP) = assay: LDH cytotoxicity assay in PRP; assay type: cell-based, human; conditions: between 6.25 and 100 μM
Procedure: In order to examine whether the native chrysin and its synthetic derivatives exert any cytotoxic effects in platelets at the concentrations used in this study, the lactate dehydrogenase (LDH) assay was performed using PRP.
The LDH cytotoxicity assay was performed using the LDH Cytotoxicity Assay Kit (Pierce, Thermo Fisher, UK) according to the manufacturer’s instructions. In brief, the PRP was incubated at 37 °C for 30 minutes. […] Following incubation, the reaction mixture (provided in the kit) was added to the PRP and incubated for 30 minutes. The reaction was then stopped using a stop solution provided in the kit. The absorbance of the mixture was measured at 490–650 nm using a Fluostar Optima spectrofluorimeter (BMG Labtech, Germany). Results provided represent duplicate absorbance measures from three separate donors.
Figure S7: Cytotoxic effects of chrysin and its synthetic derivatives in platelets. PRP was treated with different concentrations (as used in other experiments) of chrysin or its synthetic derivatives and the LDH cytotoxicity assay was performed according to the manufacturer’s instructions. The data were obtained using platelets from three separate donors and duplicate measures were used for each donor.
(1 picture or pasted object on this page, not shown here)

washed human platelets = assay: Platelet uptake by LC-MS; assay type: in vitro ADME; conditions: 100 μM compound, 5 minutes
Procedure: The compounds taken up by the platelets were extracted with methanol (400 µL). The methanol extract was dried using vacuum centrifugation and reconstituted in 200 µL of methanol for mass spectrometry (LC-MS) analysis.

human washed platelets = assay: Intracellular calcium mobilisation in washed platelets (Fluo-4 AM); assay type: cell-based; conditions: CRP-XL 0.5 μg/mL
Procedure: Based on the above results achieved in washed platelets and PRP, chrysin and Ru-thio-chrysin were tested to evaluate their effects on the modulation of calcium mobilisation.
The calcium traces (Ai and Bi) shown are representative of three separate experiments. The maximum fluorescence obtained with each sample was converted into percentages to calculate the level of calcium mobilisation obtained with vehicle and chrysin or Ru-thio-chrysin treated samples.
The intracellular calcium levels in platelets were measured using Fluo-4 AM calcium-sensitive dye by spectrofluorimetry. […] Data were analysed by calculating the maximum level of calcium released in each sample.

[1] = test system: human platelet-rich plasma; conditions: PRP; 100 μM compound; CRP-XL 0.5 μg/mL
Source text: The calcium traces (Ai and Bi) shown are representative of three separate experiments. […] The platelets were lysed and used for immunoblot analysis to detect the level of AKT phosphorylation at residue S473, FAK phosphorylation at Y397 and phosphorylation of Src at Y527. The level of 14-3-3ζ protein was detected as a loading control. The cropped images of the blots shown here are representative of three separate experiments. The uncropped full length blots are presented in Supplementary Information (Figure S8).

[2] = test system: inside-out signalling to integrin αIIbβ3; conditions: PRP, CRP-XL 0.5 μg/mL
Procedure: The level of fluorescence obtained with vehicle control was taken as 100% to calculate the extent of inhibition in chrysin and its derivatives-treated samples. R represents ‘resting’ platelets. Cumulative data represent mean ± S.D. (n = 4). […] Following incubation, clotting was initiated by the addition of 1 U/mL thrombin and the clot retraction was monitored for three hours. The remaining clot weight at three hours was measured to analyse the extent of retraction process. The image shown on the right is representative of four separate experiments. *Indicates significance with respect to controls and ^#indicates significance with respect to the respective chrysin concentrations; p values shown (*^,# p < 0.05, **^,## p < 0.01 and ***^,### p < 0.001) are as calculated by one-way ANOVA using Graphpad Prism.
The platelets (PRP) were treated with a vehicle control [0.1% (v/v) DMSO] or with different concentrations of chrysin and its synthetic derivatives prior to activation with CRP-XL (0.5 µg/mL). The levels of fibrinogen binding and P-selectin exposure were measured using FITC-labelled anti-human fibrinogen antibodies (Dako, UK) and PECy5-labelled CD62P antibodies (BD Biosciences, UK), respectively. The median fluorescence intensity was used to assess the levels of fibrinogen binding and P-selectin exposure on the platelet surface. The level of fluorescence obtained with the vehicle control was taken as 100% when compared with the treated samples.

Compound: O=c1cc(-c2ccccc2)oc2cc(O)cc(O)c12 [chrysin]
- cytotoxic effects in platelets (LDH) (platelets (PRP)): did not show significant cytotoxic effects
- uptake in platelets (washed human platelets): 6.86 ± 0.27 µM
- effect on calcium mobilisation in washed platelets (human washed platelets): greater inhibitory effects on calcium mobilisation than Ru-thio-chrysin

Compound: chlorido [(5-oxo-κO)-7-hydroxy-(2-phenyl)-4H-chromen-4-thionato-κS] (η6-p-cymene)ruthenium(II) [Ru-thio-chrysin]
- reduction in calcium mobilisation [1]: around 60%
- inhibition of fibrinogen binding ([2]; 6.25 μM compound): 15–20%
- inhibition of fibrinogen binding ([2]; 100 μM compound): ~90%
